Our source for the melting point values is a melting point compilation (Tetko et al.; mined from patent text by program, amines drawn as free bases though some values may be those of a salt).

As a reminder, the melting point is the temperature of the solid-liquid transition.

The structures appear in SMILES notation.

Consider `COC(=O)c1ccc(CN2CCN(c3nc(C)cs3)C2=O)cc1`, for which the melting point is 157 to 158 °C.

`COc1cc(N)c(Cl)cc1C(=O)NCC1CCN(CCCCC(=O)c2ccc(O)cc2)CC1` registered a melting point of 154 to 156 °C. The molecule `COc1ccc(C(=O)CCCCCBr)cc1` registered a melting point of 40 to 41 °C. In the case of `O=C1OC(=O)c2cc3c(cc21)CCOC3` it was 156 to 158 °C. In the case of `CC(=O)c1ccc(Nc2cccc(-c3cncnc3)c2)c([N+](=O)[O-])c1` it was 131 to 132 °C; in that of `CCC1(C)CC(=O)C(C(=O)Nc2ccc(C(F)(F)F)cc2)C(=O)C1` (stereo not drawn), 99 to 100 °C; in that of `NCC(c1cccc(OCc2ccccc2)c1)C1CCCCC1O` (mixture of isomers), 139 to 141 °C. In the case of `Cc1ccc(S(=O)(=O)Oc2ccccc2NC(=O)c2cccc3[nH]ccc23)cc1` it was 135 °C; in that of `CCOC(=O)/C=C/c1ccc(OS(=O)(=O)C(F)(F)F)c(Cl)c1`, 59 to 61 °C.

`COc1ccc(CNC(=O)c2c[nH]c3ccc(N4CCCC4)nc3c2=O)cc1` gave a melting point of 270 to 272 °C. In the case of `O=C1c2ccccc2C(=O)N1Cc1noc(-c2ncn3c2[C@@H]2CCN2C(=O)c2c-3ccc(F)c2Cl)n1` it was 292 to 294 °C. In the case of `COC(C=CC=Cc1ccc(OC)cc1)=CC(=O)O` it was 187 °C; in that of `O=C(Nc1ccc(Cl)cn1)c1cc(F)ccc1NCC1CCNCC1`, 230 to 233 °C. In the case of `OCc1ccccc1NCc1c(O)ccc2c1CCCO2` it was 151 to 153 °C; in that of `CCC(COc1ccccc1COc1cccc2ccc(=O)[nH]c12)OC(C)=O` (stereo not drawn), 112 to 114 °C. Molecule `COCCOc1cc(C(F)(F)F)cc(Oc2ccc(CCNc3ncnc4nccnc34)cc2)n1` showed a melting point of 101 to 104 °C.

On to `Cc1nc2ccccc2c(=O)n1CCN1CCC(c2noc3cc(F)ccc23)CC1`, for which the melting point lay within 164 to 165 °C.

With `N#Cc1c(Oc2ccc(Oc3ccc(N)cc3)cc2)cccc1Oc1ccc(Oc2ccc(N)cc2)cc1`, the melting point lay in the range of 233 to 234 °C. In the case of `O=[N+]([O-])C(F)(CCc1nnc(C(F)(F)C(F)(F)F)o1)[N+](=O)[O-]` it was 3 to 5 °C; in that of `O=C1Nc2cc(F)ccc2C1CCCCN1CCN(c2ccccn2)CC1` (stereo not drawn), 136 to 137 °C. In the case of `Nc1nc(OCCc2ccccc2Cl)nc2c1ncn2C1OC(CO)C(O)C1O` (stereo not drawn) it was 158 to 161 °C; in that of `CCOC(=O)CCC(C#N)(c1ccc(C(F)(F)F)cc1)N1CCOCC1` (stereo not drawn), 96 to 97 °C. The molecule `N#Cc1cc(C(=O)c2cccs2)ccc1O` displayed a melting point of 216 °C. In the case of `CC(C)OC(=O)N1CC(=O)Nc2ccc(-c3cccc(Cl)c3)cc21` it was 174 to 176 °C. In the case of `NS(=O)(=O)c1ccc(-c2ccco2)cc1` it was 202 to 203 °C; in that of `COC(=O)c1ccccc1-c1nc2cc(C)ccc2o1`, 135 to 138 °C. In the case of `CCN(CC)c1ccc(C(c2ccc(N(C)C)cc2)c2ccc(N(C)C)cc2)c(OC(=O)Nc2ccccc2)c1` it was 145 to 146 °C; in that of `CCc1cn(C2CC(O)C(CCC(=O)Cc3c(Cl)cccc3Cl)O2)c(=O)[nH]c1=O` (stereo not drawn), 229 to 230 °C; in that of `COC(=O)[C@@H]1O[C@H](c2ccc(OC)cc2)N(C(=O)OC(C)(C)C)[C@H]1c1ccccc1`, 104 to 105 °C. Regarding `CC(O)=C(C#N)C(=O)Nc1ccc([N+](=O)[O-])c(C)c1`, the melting point lay within 231 to 233 °C. Molecule `COCCOc1ccc2c(=O)c(C#N)c[nH]c2c1` came in with a melting point above 250 °C. In the case of `NS(=O)(=O)c1ccc(-n2nc(C(F)(F)F)cc2-c2ccc(-c3cocn3)cc2)cc1`, the melting point is 170 to 172 °C. The molecule `CS(=O)(=O)Oc1ccc(-n2nc(C#N)cc2-c2ccc(S(C)(=O)=O)cc2)cc1` returned a melting point of 195 to 196 °C. In the case of `CCCc1nc2cccc(C(=O)OC)c2n1Cc1ccc(-c2ccccc2-c2nc(=O)o[nH]2)cc1` it was 224 to 226 °C; in that of `O=C1CC(N2C=Nc3cc(Cl)cc(Cl)c3C2)C(=O)N1` (stereo not drawn), 215 to 217 °C.

Consider `CCOc1c(C(=O)O)sc2ccc(OC)cc12`, for which the melting point is 162 to 164 °C. In the case of `O=C(O)C=Cc1cn(Cc2cc(OCc3ccccc3)cc(OCc3ccccc3)c2)cc1-c1ccccc1` it was 182 to 183 °C; in that of `O=C1NC(=O)C(Cc2ccc(OCCc3c[nH]c4ccccc34)cc2)S1` (stereo not drawn), 42.6 to 44.5 °C; in that of `COc1cccc2c1C(O)c1ccccc1C21CCN(C)CC1` (stereo not drawn), 149 to 151 °C.

Molecule `O=Cc1cccn1-c1ncccc1[N+](=O)[O-]` registered a melting point of 122 to 125 °C. In the case of `CN(C)CCCC#Cc1cnc(NC(=O)OC(C)(C)C)nc1` it was 119 to 120 °C. In the case of `COC(=O)CCNc1ccc(CNC(=O)C2Cc3ccccc3N2S(=O)(=O)c2ccc(-c3cccc(C(F)(F)F)c3)cc2)cc1` (stereo not drawn) it was 61 °C; in that of `CC1CC(=O)NN=C1c1ccc2c(c1)OCC(=O)N2` (stereo not drawn), above 300 °C; in that of `CC(C)Cn1nc(-c2ccc(C(F)(F)F)cc2)cc(C(=O)O)c1=O`, 184 to 185 °C. In the case of `COC(=O)c1ccsc1COc1ccc(CCCCO)cc1` it was 58 to 60 °C. Molecule `COc1ccc2c(OCCN3CCOCC3)c(-c3ccccc3)c(=O)oc2c1` returned a melting point of 95 to 96 °C. In the case of `N#Cc1c[nH]nc1-c1ccccc1Cl` it was 160 °C; in that of `Oc1c(Cl)cc(C2=NCCO2)cc1Cl`, 189 to 191 °C; in that of `CC(=O)OCc1cc(=O)c(Oc2ccc(Cl)cc2)c(-c2ccc(S(C)(=O)=O)cc2)o1`, 115 °C.

Regarding `CC(C)(C)c1nc(O)cc(OC(F)F)n1`, the melting point amounted to 156 °C. In the case of `CNc1ccc2sc3ccccc3c(=O)c2c1` it was 172 to 175 °C; in that of `CNc1nc(O)cc(O)n1`, 290 °C.

Turning to `CS(=O)c1nnc(Sc2cc(C(C)(C)C)c(O)c(C(C)(C)C)c2)s1` (stereo not drawn), the melting point lay within 162 to 164 °C.

With `O=C(O)CCC(CSc1ccc2ccccc2c1)C(=O)O` (stereo not drawn), the melting point lay within 140 to 142 °C.

As to `Cc1nc(C)c(C(=O)NC(C)c2ccccc2)cc1CCl` (stereo not drawn), the melting point was 165 °C. In the case of `O=C(NCCC[PH](=O)O)OCc1ccccc1` it was 53 to 55 °C; in that of `COc1ccc(-c2cc3c(OC)c(Br)c(OC)cc3o2)cc1`, 107 to 109 °C; in that of `CC1=NC(NC(=O)Nc2cccc(C)c2)C(=O)N(CC(=O)N2CC3CCC(CC3)C2)c2c(C)cccc21` (stereo not drawn), 177 to 179 °C. In the case of `COc1cc2c(cc1OC)C(N(CC(=O)O)C(=O)C(CSC(C)=O)CSC(C)=O)CC2` (stereo not drawn) it was 140 to 143 °C; in that of `C=CCN(CC=C)c1ccc(C(C)N(O)C(N)=O)cc1` (stereo not drawn), 112 to 114 °C; in that of `CCOCc1nc2c(Cl)nc(C)c(C)c2n1NC1CCOCC1`, 137 to 139 °C.

As to `O=C(NCCO[N+](=O)[O-])c1ccsc1`, the melting point lay within 100 to 102 °C. In the case of `COc1ccc(S(=O)(=O)C2(C(=O)NO)CCN(CCCOc3ccccc3)CC2)cc1` it was 101 °C; in that of `O=C(CCc1ccccc1)c1cc2ccncc2[nH]1`, 246 to 250 °C. In the case of `O=C(O)CCCn1c(=O)[nH]c2ccccc21` it was 180 °C; in that of `CCOC(=O)C1(O)CSC(O)(C(=O)OCC)CS1` (stereo not drawn), 139 to 143 °C; in that of `O=Cc1ccn(-c2c(Cl)cc(C(F)(F)F)cc2Cl)c(=O)c1`, 115 to 117 °C. In turn, `CCOc1ccc2ccccc2c1C(=O)N1CCC(NS(=O)(=O)c2cc(S(=O)(=O)c3ccccc3)ccc2C(C)C)CC1` came in with a melting point of 164 to 166 °C. In the case of `Nc1ccc(Nc2c(NCc3ccco3)cc(C(=O)O)cc2S(N)(=O)=O)cc1` it was 232 °C; in that of `COC(=O)[C@@H]1C[C@H](OS(=O)(=O)c2ccccc2Br)C(=O)[C@@H]2[C@@]3(C)C[C@@H](c4ccoc4)OC(=O)[C@H]3CC[C@]21C`, 162 to 163 °C. In the case of `O=C(O)C=Cc1ccc2cc[nH]c2c1` it was 215 to 217 °C; in that of `CCOc1ccc(S(=O)(=O)N(CC(=O)NN=C2C(=O)Nc3ccc([N+](=O)[O-])cc32)c2ccccc2)cc1`, 252 to 253 °C; in that of `CCOC(=O)CCc1ccc(OC(C)C)nc1Oc1ccc(Cl)cc1Cl`, 42.5 to 43.5 °C. In the case of `Cc1cccc(Br)c1C(=O)N[C@@H](Cc1ccc(-c2c(C)n(C)c(=O)n(C)c2=O)cc1)C(=O)O` it was 240 to 242 °C; in that of `CCN(C)C(=O)Nc1ccc2c(c1Cl)C(c1ccccc1F)=NCC(=O)N2C`, 184 to 186 °C.

On to `CCN1CCCC(NC(=O)c2ccccc2Nc2ccnc3c(Cl)cccc23)C1` (stereo not drawn), for which the melting point lay in the range of 173 to 175 °C. For the molecule `Cc1ccccc1-n1c(-c2cc(-c3ccc(Cl)cc3)c(N3CCOCC3)s2)nc2ccccc2c1=O`, the melting point is 186 to 189 °C. In the case of `Cc1nc2c3c(ccc2[nH]1)[C@H]1OCCO[C@@H]1[C@@H](c1ccccc1)O3` it was 260 °C; in that of `CN(C)S(=O)(=O)c1ccc(N2CC(CO)OC2=O)cc1` (stereo not drawn), 174 to 176 °C.

`N#Cc1cc(-c2ccc(Cl)cc2)cnc1N` came in with a melting point of 202 to 204 °C. In the case of `O=C1CCCN1CCCCCCN1CCCC1=O` it was 101 to 103 °C; in that of `N#Cc1ncn(C2OC(COC(=O)c3ccccc3)C(OC(=O)c3ccccc3)C2OC(=O)c2ccccc2)c1C#N` (stereo not drawn), 68 to 72 °C. The molecule `COc1ccc(-c2[nH]nc3c2C(=O)c2c(NC(=O)CN4CCCCC4)cccc2-3)cc1` registered a melting point of 291 °C. In the case of `Cc1ccc2c(c1)[C@H]1Cc3ccccc3[C@H]1N2C` (relative stereo) it was 54 °C.

With `CC1(C)CCC(C)(C)c2cc(Cn3cccn3)c(/C=C/c3ccc(C(=O)O)cc3)cc21`, the melting point lay within 246 to 248 °C. For the molecule `Cc1c(C)c2c(c(C)c1OCc1ccccc1)CCC(C)(CC(=O)O)O2` (stereo not drawn), the melting point fell in the range of 91 to 96 °C.

In turn, `C[C@@H](NS(C)(=O)=O)[C@](O)(Cn1cncn1)c1ccc(Cl)cc1Cl` (relative stereo) registered a melting point of 177 to 180 °C. In the case of `CCC[C@@H](CC1(C(=O)Nc2nnc(CC)s2)CCCC1)C(=O)O` it was 130 to 136 °C.
